US5110815A, “5-amino-5,6,7,8-tetrahydroquinolines and related compounds and pharmaceutical use” (Hoechst-Roussel Pharmaceuticals Inc., priority 1990, dated 1992)
Where a name gives a salt, the structure may show the parent alone.

Experiments:
[1] = system: scopolamine induced memory deficits; assay: dark avoidance assay (reversal of scopolamine induced memory deficit); type: in vivo, male CFW mice; conditions: sc, scopolamine 3.0 mg/kg sc
Source text: The 5-amino-5,6,7,8-tetrahydroquinolines and related compounds of the present invention are useful as agents for the relief of memory dysfunction, particularly dysfunctions associated with decreased cholinergic activity such as those found in Alzheimer's disease. […] In this assay, three groups of 15 male CFW mice were used, a vehicle/vehicle control group, a scopolamine/vehicle group, and a scopolamine/drug group. Thirty minutes prior to training, the vehicle/vehicle control group received normal saline subcutaneously, and the scopolamine/vehicle and scopolamine/drug groups received scopolamine subcutaneously (3.0 mg/kg, administered as scopolamine hydrobromide). Five minutes prior to training, the vehicle/vehicle control and scopolamine/vehicle groups received distilled water and the scopolamine/drug group received the test compound in distilled water.
The training/testing apparatus consisted of a plexiglass box approximately 48 cm long, 30 cm high and tapering from 26 cm wide at the top to 3 cm wide at the bottom. The interior of the box was divided equally by a vertical barrier into a light compartment (illuminated by 25-watt reflector lamp suspended 30 cm from the floor) and a dark compartment (covered). There was a hole at the bottom of the barrier 2.5 cm wide and 6 cm tall and a trap door which could be dropped to prevent an animal from passing between the two compartments. A Coulbourn Instruments small animal shocker was attached to two metal plates which ran the entire length of the apparatus, and a photocell was placed in the dark compartment 7.5 cm from the vertical barrier and 2 cm off the floor. The behavioral session was controlled by PDP 11/34 minicomputer.
At the end of the pretreatment interval, an animal was placed in the light chamber directly under the light fixture, facing away from the door to the dark chamber. The apparatus was then covered and the system activated. If the mouse passed through the barrier to the dark compartment and broke the photocell beam within 180 seconds, the trap door dropped to block escape to the light compartment and an electric shock was administered at an intensity of 0.4 milliamps for three seconds. The animal was then immediately removed from the dark compartment and placed in its home cage. […] The latency in seconds for each mouse was recorded.
The test day latency in seconds for each animal was recorded and the animals were then discarded.
The high degree of variability (due to season of the year, housing conditions, and handling) found in one trial passive avoidance paradigm is well known. To control for this fact, individual cutoff (CO) values were determined for each test, compensating for interest variability. […] Thus, the CO value was defined as the second highest latency time in the control group to more accurately reflect the 1/15 expected control responders in each test group. Experiments with a variety of standards repeated under a number of environmental conditions led to the development of the following empirical criteria: for a valid test, the CO value had to be less than 120 sec and the vehicle/vehicle control group had to have at least 5/15 animals with latencies greater than CO. For a compound to be considered active the scopolamine/compound group had to have at least 3/15 mice with latencies greater than CO.
The results of the dark avoidance test are expressed as the number of animals per group (%) in which this scopolamine induced memory deficit is blocked as measured by an increase in the latency period.

Acetylcholinesterase = molecular target: T1, Acetylcholinesterase (Rattus norvegicus, UniProt P37136); assay: in vitro inhibition of acetylcholinesterase activity (modified Ellman assay, rat corpora striata homogenate); type: biochemical, Male Wistar rats; conditions: acetylthiocholine 5 millimolar final, pH 7.2, 10 min preincubation at 37° C
T1 construct: corpora strita dissected free, weighed and homogenized in 19 volumes; from tissue; host or cells: corpora striata of male Wistar rats, crude homogenate in 0.05 M phosphate buffer pH 7.2
T1 sequence (P37136 32-614): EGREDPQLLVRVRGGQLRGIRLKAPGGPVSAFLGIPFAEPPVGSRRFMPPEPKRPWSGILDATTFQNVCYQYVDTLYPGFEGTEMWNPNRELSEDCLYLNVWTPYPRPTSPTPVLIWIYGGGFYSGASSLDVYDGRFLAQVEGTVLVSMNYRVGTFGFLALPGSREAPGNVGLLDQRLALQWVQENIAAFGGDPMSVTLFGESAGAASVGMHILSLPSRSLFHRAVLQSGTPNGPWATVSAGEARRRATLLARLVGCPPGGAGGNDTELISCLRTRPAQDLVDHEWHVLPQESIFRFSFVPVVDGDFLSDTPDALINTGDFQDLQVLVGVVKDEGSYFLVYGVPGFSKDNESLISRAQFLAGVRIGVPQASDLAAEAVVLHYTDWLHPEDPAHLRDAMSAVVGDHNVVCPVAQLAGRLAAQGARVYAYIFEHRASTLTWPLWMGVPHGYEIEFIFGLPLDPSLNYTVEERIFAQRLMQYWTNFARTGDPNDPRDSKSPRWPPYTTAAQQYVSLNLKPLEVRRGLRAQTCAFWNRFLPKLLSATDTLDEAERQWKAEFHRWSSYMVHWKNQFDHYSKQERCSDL
Method: In this assay, a modification of a test described by G. L. Ellman, et al., Biochem. Pharmacol., 7, 88 (1961), the following reagents are prepared and employed:
1. 0.05M Phosphate Buffer (pH 7.2)
A solution of monobasic sodium phosphate monhydrate (6.85 g) in distilled water (100 ml) is added to a solution of dibasic sodium phosphate heptahydrate (13.4 g) and distilled water (100 ml) until a pH of 7.2 was attained. The solution was diluted 1 to 10 with distilled water.
The 0.05M Phosphate Buffer (pH 7.2) was added to acetylthiocholine (198 mg) to a total volume of 100 ml, i.e., a quantity sufficient (gs) to 100 ml.
3. 5,5-Dithiobisnitrobenzoic Acid in Buffer
The 0.05M Phosphate Buffer (pH 7.2) was added to 5,5-dithiobisnitrobenzoic acid to a total volume of 100 ml, i.e., a quantity sufficient (gs) to 100 ml.
4. Stock Solution of Drug
A 2 millimolar stock solution of the test drug is prepared in a quantity sufficient of a suitable solvent, either acetic acid or dimethyl sulfoxide to volume with 5,5-Dithiobisnitrobenzene Acid in Buffer. Stock Solution of Drug is serially diluted (1:10) so that the final cuvette concentration is 10^-4 molar.
Male Wistar rats are decapitated, brains rapidly removed, corpora strita dissected free, weighed and homogenized in 19 volumes (approximately 7 mg potein/ml) of 0.05M phosphate Buffer (pH 7.2) using a Potter-Elvehjem homogenizer. A 25 μl aliquot of this suspension is added to 1 ml of the vehicle or various concentrations of the test drug and preincubated for 10 minutes at 37° C. Enzyme activity is measured with a Beckman DU-50 spectrophotometer with the following software and instrument settings:
1. Kinetics Soft-Pac™ Module #598273;
6. Cuvettes--2 ml cuvettes using auto 6--sampler;
7. Blank--1 for each substrate concentration;
8. Interval time--15 seconds (15 or 30 seconds for kinetics);
9. Total time--5 minutes (5 or 10 minutes for kinetics);
13. Results--yes (gives slope); and
Reagents are added to the blank and sample cuvettes as follows:
Blank values are determined for each run to control for non-enzymatic hydrolysis of substrate and these values are automatically subtracted by the Kindata program available on kinetics soft-pac module. This program also calculates the rate of absorbance change for each cuvette.
5,5-Dithiobisnitrobenzoic Acid concentration is 0.5 millimolar yielding 0.25 millimolar final concentration. [formula]

SMILES | Percent of Animals with Scopolamine Induced Memory Deficit Reversal ([1]; dose 1.0 mg/kg) | IC50 (Acetylcholinesterase) | further results
Cl.Cl.Cn1c2c(ccc1=O)C(NCCc1ccccc1)CCC2.O (stereo not shown) [5,6,7,8-Tetrahydro-1-methyl-5-[(2-phenylethyl)amino]-2(1H)-quinolinone dihydrochloride monohydrate] | 33% | – | –
CCCn1c2c(ccc1=O)C(NCCc1ccccc1)CCC2 (stereo not shown) [5,6,7,8-Tetrahydro-5-[(2-phenylethyl)amino]-1-propyl-2(1H)-quinolinone fumarate] | – | 3.1 µM | –
COc1ccc(CCNC2CCCc3c2ccc(=O)n3C)cc1 (stereo not shown) [5,6,7,8-Tetrahydro-5-[[2-(4-methoxyphenyl)ethyl]amino]-1-methyl-2(1H)-quinolinone] | – | 9.6 µM | Percent of Animals with Scopolamine Induced Memory Deficit Reversal ([1]; dose 0.3 mg/kg): 27%
Cn1c2c(ccc1=O)C(NCCc1ccc(Cl)c(Cl)c1)CCC2 (stereo not shown) [5-[[2-(3,4-Dichlorophenyl)ethyl]amino]-5,6,7,8-tetrahydro-1-methyl-2(1H)-quinolinone] | 21% | 2.9 µM | –
Cn1c2c(ccc1=O)C(NCCc1ccc(Cl)cc1)CCC2 (stereo not shown) [5-[[2-(4-Chlorophenyl)ethyl]amino]-5,6,7,8-tetrahydro-1-methyl-2(1H)-quinolinone] | – | 6.6 µM | –
CC(=O)NC1(C)CCCc2[nH]c(=O)ccc21 (stereo not shown) [N-(1,2,5,6,7,8-Hexahydro-5-methyl-2-oxo-5-quinolinyl)acetamide] | – | – | Percent of Animals with Scopolamine Induced Memory Deficit Reversal ([1]; dose 0.16 mg/kg): 20%
CC(=O)N(OCc1ccccc1)C1CCCc2nc(OCc3ccccc3)ccc21.Cl (stereo not shown) [N-(Phenylmethoxy)-N-[5,6,7,8-tetrahydro-2-(phenylmethoxy)-5-quinolinyl]acetamide hydrochloride] | 20% | – | –
CNC(=O)Oc1ccc2c(c1)[C@]1(C)CCN(C)[C@@H]1N2C [physostigmine, reference compound] | – | – | Percent of Animals with Scopolamine Induced Memory Deficit Reversal ([1]; dose 0.31 mg/kg): 20%
